Laboratory results as given in patent US10160766B1, “Benzopyranyl tetracycle compound and pharmaceutical composition having excellent anti-inflammatory effect comprising the same” (Spark Biopharma, Inc., priority 2017, dated 2018).

What was measured:
Format in all cases: cell-based
[1] = tested on: NO release in Raw264.7 cells; assay: Griess assay, inhibition of nitric oxide release; conditions: for NO Inhibition rate (%): 100 ng/mL LPS and compounds 24 hours, compared with control group; for inhibitory effect on NO release, in words, compared with Compound 1d: 100 ng/mL LPS, 24 hours
Experimental: Thus, the Griess assay was used to measure nitric oxide secretion for inflammation inhibition in Raw264.7 cells.
Raw 264.7 macrophage cell was cultured in Dulbecco Modified Eagle Medium (DMEM) with 10% (v/v) fetal bovine serum (FBS) and 1% (v/v) antibiotic-anti mycotic solution.
Cell was maintained in a 100 mm cell culture dish under cell culture conditions (5% CO2 incubator at 37° C. with humidified atmosphere).
Griess assay reagent was generated prior to the assay with the following contents listed below: N-(1-naphthyl) ethylenediamine dihydrochloride, 0.1% (m/v); sulfanilamide, 1% (m/v); phosphoric acid (85%); 5% (v/v) in deionized water.
Raw 264.7 cell was seeded in transparent 96-well plate and maintained for 1 day. Media was aspirated, and each well was washed with serum free DMEM for twice. Each well was refilled with serum-free DMEM.
Then 100 ng/mL LPS and compounds were treated afterward and cultured for 24 hours. After the incubation, the supernatant culture media was transferred to new 96-well plate and mixed with 50 μL of Griess assay reagent.
Media-reagent mixture was incubated at room temperature for several minutes. Absorbance was read at 548 nm. Four wells each were used for the control experiment, LPS and DMSO (without any compounds) treated well, and DMSO-only treated well. Blank values were measured.
Blank values were measured by mixing 50 μL of Griess assay reagent with […] and 1% antibiotic-antimycotic containing DMEM.
As for the compounds in which the double bond of the tetrahydropyridazine ring in Compound 1d is moved or eliminated, the inhibition rate of NO release was measured in the same manner as in Test Example 2.
The inhibition rate of NO release for Compounds 2a to 2o prepared in Example 2 was tested in order to confirm the anti-inflammatory effect for the above compounds.

Raw 264.7 cell = assay: WST (water-soluble tetrazolium) analysis, relative cell viability; conditions: 100 ng/mL LPS and compounds 24 hours
Experimental: Relative cell viability of Compound 2a to 2o prepared in Examples 2 was measured by WST (water-soluble tetrazolium) analysis.
Raw 264.7 cell was seeded in transparent 96-well plate and maintained for 1 day.
Media was aspirated, and each well was washed with serum free DMEM for twice. Each well was refilled with serum-free DMEM. Then, 100 ng/mL LPS and compounds were treated afterward and cultured for 24 hours. After the incubation, the supernatant culture media was transferred to new 96-well plate.
Immediately after transferring media, cell-seeded wells were refilled with 100 μL of 10% FBS and 1% antibiotic-antimycotic containing DMEM. Then, 10 μL of Ez-cytox WST assay reagent was used to treat each well, following the manufacturer's protocol.
After incubating for 20 min in a 5% CO2 incubator at 37° C. with humidified atmosphere, absorbance was read at 450 nm.
Blank values were obtained from the well only treated with 10% FBS and 1% antibiotic-antimycotic containing DMEM.

[2] = tested on: TNF-α secretion in Raw264.7 cell; assay: ELISA of secreted TNF-α; conditions: Mus musculus, LPS 100 ng/mL, compounds 10 μM, read-out: TNF-α Inhibition Rate (%)
Experimental: Thus, in order to additionally confirm the inflammation inhibitory effects of Compounds 2f to 2l, the inhibition rate of TNF-α secretion was quantitatively measured by ELISA.
Cells were treated with each Compound 1d, or 2f to 2l, and LPS for 24 hours, followed by ELISA for TNF-α present in the culture solution.
In order to measure the amount of secreted TNF-α, Raw264.7 cell was seeded in transparent 96-well plate and maintained for 1 day. Media was aspirated after 1 day and replaced to serum-free DMEM with 1% (v/v) antibiotic-antimycotic solution. LPS and compounds were treated in a final concentration of 100 ng/mL and 10 μM.
Standard curve was plotted by the dose-dependent treatment of the control TNF-α protein provided with the ELISA kit. Blank value was measured by adding solutions without TNF-α substrate.
The TNF-α secretion inhibition rate of Compounds 1d, and 2f to 2l was confirmed, when compared with control groups.

Structure (SMILES)	NO Inhibition rate (%) [1]	Relative Cell Viability (%) (Raw 264.7 cell)	inhibition at 10 µM [2]	inhibitory effect on NO release, in words, compared with Compound 1d [1]
COc1ccc2c(c1)C1C(=CCn3c(=O)n(-c4ccccc4)c(=O)n31)C(C)(C)O2 (stereo not shown) [Compound 1f]	55%	–	–	–
CC1(C)Oc2cc(O)ccc2C2C1=CCn1c(=O)n(-c3ccccc3I)c(=O)n12 (stereo not shown) [Compound 2d]	–	109%	–	–
COc1ccc(-n2c(=O)n3n(c2=O)C2C(=CC3)C(C)(C)Oc3cc(O)ccc32)cc1 (stereo not shown) [Compound 2g]	89%	127%	44%	–
CC1(C)Oc2cc(F)ccc2C2C1=CCn1c(=O)n(-c3ccccc3)c(=O)n12 (stereo not shown) [Compound 1c]	79%	–	–	–
CCCN1CCC2(CC1)Oc1cc(O)ccc1C1C2=CCn2c(=O)n(-c3ccccc3)c(=O)n21 (stereo not shown) [Compound 1i]	47%	–	–	significantly reduced
CC1(C)Oc2cc(O)ccc2C2C1=CCn1c(=O)n(-c3ccc(C(F)(F)F)cc3)c(=O)n12 (stereo not shown) [Compound 2m]	85%	106%	–	–
CC1(C)Oc2ccccc2C2C1=CCn1c(=O)n(-c3ccccc3)c(=O)n12 (stereo not shown) [Compound 1a]	83%	–	–	–
COc1ccccc1-n1c(=O)n2n(c1=O)C1C(=CC2)C(C)(C)Oc2cc(O)ccc21 (stereo not shown) [Compound 2e]	–	115%	–	–
CC1(C)Oc2cc(O)ccc2C2C1=CCn1c(=O)n(Cc3ccccc3)c(=O)n12 (stereo not shown) [Compound 2b]	70%	106%	–	–
Cc1ccc(-n2c(=O)n3n(c2=O)C2C(=CC3)C(C)(C)Oc3cc(O)ccc32)cc1 (stereo not shown) [Compound 2i]	94%	130%	45%	–
CC1(C)Oc2cc(O)ccc2C2C1=CCn1c(=O)n(-c3ccc(C(C)(C)C)cc3)c(=O)n12 (stereo not shown) [Compound 2n]	99%	105%	–	–
CNc1ccc2c(c1)OC(C)(C)C1=CCn3c(=O)n(-c4ccccc4)c(=O)n3C12 (stereo not shown) [Compound 1b]	52%	–	–	–
CC1(C)Oc2cc(O)ccc2C2C1=CCn1c(=O)n(C3CCCCC3)c(=O)n12 (stereo not shown) [Compound 2c]	63%	117%	–	–
CC1(C)Oc2cc(O)ccc2C2C1=CCn1c(=O)n(-c3ccc(F)cc3)c(=O)n12 (stereo not shown) [Compound 2h]	87%	109%	44%	–
COc1ccc2c(c1)OC(C)(C)C1=CCn3c(=O)n(-c4ccccc4)c(=O)n3C12 (stereo not shown) [Compound 1e]	44%	–	–	–
COc1cc2c(cc1OC)C1C(=CCn3c(=O)n(-c4ccccc4)c(=O)n31)C(C)(C)O2 (stereo not shown) [Compound 1g]	44%	–	–	–
CC(=O)N1CCC2(CC1)Oc1cc(O)ccc1C1C2=CCn2c(=O)n(-c3ccccc3)c(=O)n21 (stereo not shown) [Compound 1j]	36%	–	–	significantly reduced
CC1(C)Oc2cc(O)ccc2C2C1=CCn1c(=O)n(-c3ccc4c(c3)OCO4)c(=O)n12 (stereo not shown) [Compound 2k]	92%	121%	46%	–
COc1ccc2c(c1O)OC(C)(C)C1=CCn3c(=O)n(-c4ccccc4)c(=O)n3C12 (stereo not shown) [Compound 1h]	26%	–	–	–
COc1cccc(-n2c(=O)n3n(c2=O)C2C(=CC3)C(C)(C)Oc3cc(O)ccc32)c1 (stereo not shown) [Compound 2f]	96%	118%	38%	–
CCCCc1ccc(-n2c(=O)n3n(c2=O)C2C(=CC3)C(C)(C)Oc3cc(O)ccc32)cc1 (stereo not shown) [Compound 2o]	99%	50%	–	–
Cn1c(=O)n2n(c1=O)C1C(=CC2)C(C)(C)Oc2cc(O)ccc21 (stereo not shown) [Compound 2a]	45%	114%	–	–
